Laboratory results: the NIST ThermoML archive (doi:10.1021/je900056u)

Tests used:
[1] = 101 kPa, Liquid; for speed of sound: Linear variable-path acoustic interferometer; for mass density: Pycnometric method
[2] = xn = mol fraction of the nth substance listed; conditions: 101 kPa, Liquid; for speed of sound: Linear variable-path acoustic interferometer; for mass density: Pycnometric method

CC(=O)CC(C)C [4-methylpentan-2-one]
[1]
Conditions	mass density [kg/m3]	speed of sound [m/s]
303.15 K	791.7	1175
308.15 K	787.7	1156
313.15 K	782.6	1138

CC(=O)CC(C)C [4-methylpentan-2-one] + O=S1(=O)CCCC1
[2], x2 = 0
Conditions	mass density [kg/m3]	speed of sound [m/s]
303.15 K	791.7	1175
308.15 K	787.7	1156
313.15 K	782.6	1138

CCC(C)=O [butanone]
[1]
Conditions	mass density [kg/m3]	speed of sound [m/s]
303.15 K	794.6	1178
308.15 K	790.4	1158
313.15 K	783.1	1136

CCC(C)=O [butanone] + O=S1(=O)CCCC1
[2], x2 = 0
Conditions	mass density [kg/m3]	speed of sound [m/s]
303.15 K	794.6	1178
308.15 K	790.4	1158
313.15 K	783.1	1136

CCCC(C)=O [pentan-2-one]
[1]
Conditions	mass density [kg/m3]	speed of sound [m/s]
303.15 K	796.6	1192
308.15 K	792.7	1176
313.15 K	785.5	1151

CCCC(C)=O [pentan-2-one] + O=S1(=O)CCCC1
[2]
Conditions	mass density, 303.15 K [kg/m3]	mass density, 308.15 K [kg/m3]	mass density, 313.15 K [kg/m3]	speed of sound, 303.15 K [m/s]	speed of sound, 308.15 K [m/s]	speed of sound, 313.15 K [m/s]
x2 = 0	796.6	792.7	785.5	1192	1176	1151
x2 = 0.0261	808.2	804.2	797.8	1203	1183	1161
x2 = 0.162	869.2	864.6	858.8	1246	1225	1203
x2 = 0.2945	929.2	924.8	919.1	1290	1271	1251
x2 = 0.445	998.5	994.6	989.1	1352	1340	1318
x2 = 0.5296	1038.2	1034.5	1029.1	1384	1373	1353
x2 = 0.6319	1086.6	1082.8	1078	1429	1418	1401
x2 = 0.7498	1143.2	1139.2	1134.7	1484	1469	1450
x2 = 0.8677	1200.2	1195.8	1191.6	1536	1520	1503
x2 = 0.9799	1253.2	1248.5	1243.6	1580	1562	1549

CCC(=O)CC [pentan-3-one]
[1]
Conditions	mass density [kg/m3]	speed of sound [m/s]
303.15 K	804.5	1197
308.15 K	799.6	1179
313.15 K	794.3	1160

CCC(=O)CC [pentan-3-one] + O=S1(=O)CCCC1
[2]
Conditions	mass density, 303.15 K [kg/m3]	mass density, 308.15 K [kg/m3]	mass density, 313.15 K [kg/m3]	speed of sound, 303.15 K [m/s]	speed of sound, 308.15 K [m/s]	speed of sound, 313.15 K [m/s]
x2 = 0	804.5	799.6	794.3	1197	1179	1160
x2 = 0.0252	815.9	811.1	805.8	1208	1191	1170
x2 = 0.1627	878.1	873.1	867.6	1257	1240	1218
x2 = 0.2922	937.4	931.9	926.6	1300	1283	1263
x2 = 0.4201	996.2	991.1	985.6	1345	1331	1315
x2 = 0.5234	1044.1	1039.1	1033.7	1388	1376	1361
x2 = 0.6292	1093.5	1088.4	1083.1	1435	1421	1406
x2 = 0.7487	1149.4	1144.2	1139.3	1490	1473	1460
x2 = 0.8644	1202.8	1198.1	1193.2	1536	1520	1506
x2 = 0.9804	1253.5	1250	1244.6	1579	1566	1550

O=S1(=O)CCCC1 [sulfolane]
[1]
Conditions	mass density [kg/m3]	speed of sound [m/s]
303.15 K	1261.8	1588
308.15 K	1257	1576
313.15 K	1251.6	1558

O=S1(=O)CCCC1 [sulfolane] + CC(=O)CC(C)C
[2]
Conditions	mass density, 303.15 K [kg/m3]	mass density, 308.15 K [kg/m3]	mass density, 313.15 K [kg/m3]	speed of sound, 303.15 K [m/s]	speed of sound, 308.15 K [m/s]	speed of sound, 313.15 K [m/s]
x1 = 0.0287	803.4	799.3	793.9	1185	1166	1147
x1 = 0.1852	866.6	862.5	856.8	1233	1215	1198
x1 = 0.3272	927.3	923.3	917.6	1281	1263	1247
x1 = 0.4634	989.2	985.1	979.7	1335	1316	1300
x1 = 0.5671	1038.9	1034.6	1029.3	1381	1361	1345
x1 = 0.6671	1088.8	1083.9	1078.5	1426	1407	1391
x1 = 0.7777	1145.1	1140.7	1134.1	1479	1463	1447
x1 = 0.8809	1198.5	1195.1	1187.8	1530	1513	1496
x1 = 0.9829	1252.3	1249.2	1242.3	1578	1564	1550
x1 = 1	1261.8	1257	1251.6	1588	1576	1558

O=S1(=O)CCCC1 [sulfolane] + CCC(=O)CC
[2], x1 = 1
Conditions	mass density [kg/m3]	speed of sound [m/s]
303.15 K	1261.8	1588
308.15 K	1257	1576
313.15 K	1251.6	1558

O=S1(=O)CCCC1 [sulfolane] + CCC(C)=O
[2]
Conditions	mass density, 303.15 K [kg/m3]	mass density, 308.15 K [kg/m3]	mass density, 313.15 K [kg/m3]	speed of sound, 303.15 K [m/s]	speed of sound, 308.15 K [m/s]	speed of sound, 313.15 K [m/s]
x1 = 0.0293	810.6	806.2	799.2	1191	1170	1149
x1 = 0.1391	869.7	865.6	858.7	1234	1215	1195
x1 = 0.2575	931.6	927.5	920.9	1288	1266	1247
x1 = 0.3803	993.5	989.6	983.5	1341	1319	1300
x1 = 0.4834	1043.1	1039.9	1034.4	1386	1366	1346
x1 = 0.5854	1089.7	1086.6	1081.8	1431	1413	1395
x1 = 0.7119	1145.2	1142	1137.2	1481	1465	1450
x1 = 0.8428	1200.5	1196.8	1191.8	1533	1517	1502
x1 = 0.9756	1252.7	1249	1243.7	1581	1568	1552
x1 = 1	1261.8	1257	1251.6	1588	1576	1558

O=S1(=O)CCCC1 [sulfolane] + CCCC(C)=O
[2], x1 = 1
Conditions	mass density [kg/m3]	speed of sound [m/s]
303.15 K	1261.8	1588
308.15 K	1257	1576
313.15 K	1251.6	1558
